Reference: patent US8324412B2, “Method for preparing 4-[17β-methoxy-17α-methoxymethyl-3-oxoestra-4,9-dien-11β-yl]benzaldehyde (E)-oxime (asoprisnil)” (Bayer Pharma AG, priority 2006, dated 2012)

Test: Stability of the prior-art amorphous solid form in the solid pharmaceutical form under ICH accelerated conditions
Type: physicochemical
Settings: amorphous solid form described in EP 129 26 07, ICH accelerated conditions (40° C., 75% r.h.)
Description: According to the details disclosed in the literature, it is not possible to prepare the individual intermediates on the manufacturing scale in such a way that the medicinally active asoprisnil and its precursors can be obtained therefrom reliably and reproducibly and having the analytical parameters required by the authorities or by the legislation pursuant to ICH Q6A Guidance, 2000, such as byproduct profile, content of active ingredient, chemical and physical purity, and stability. […] The suitability of the asoprisnil obtainable by this method for a solid pharmaceutical form is accordingly low.

With `COC[C@]1(OC)CC[C@H]2[C@@H]3CCC4=CC(=O)CCC4=C3[C@@H](c3ccc(/C=N/O)cc3)C[C@@]21C` [asoprisnil, 4-[17β-methoxy-17α-methoxymethyl-3-oxoestra-4,9-dien-11β-yl]benzaldehyde (E)-oxime] the “Physical stability in the solid pharmaceutical form (recrystallization)” value was “partial to complete recrystallization”.
